Experimental data from patent publication US20150272939A1, “Identification of Small Molecule Inhibitors of Jumonji AT-Rich Interactive Domain 1A (JARID1A) and 1B (JARID1B) Histone Demethylase” (Yale University, priority 2012, published 2015).
pIC50: −log10 of the molar value. Structures can show the parent of a compound that is named as a salt. Where two headings read alike, the source gives them in different places.

What was measured:
[1] = AlphaScreen counterscreen against bio-H3K4me2 peptide in the absence of enzyme (artifact signal); details: for Artifact Signal (percent): effect of the compound when incubated with bio-H3K4me2 peptide (counterscreen, no enzyme); for Artifact signal: effect of the compound when it is incubated with bio-H3K4me2 peptide: counterscreen, no enzyme;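 on all read-outs here: counterscreen run without enzyme against bio-H3K4me2 peptide to remove false positive hits from the JARID1 demethylase AlphaScreen screen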
JARID1B = molecular target: T1, JARID1B (Homo sapiens, UniProt Q9UGL1); assay: FLAG-JARID1B histone demethylase assay with AlphaScreen detection (HTS and dose response); type: biochemical; details: for Assay − Artifact Signal (percent): assay signal minus artifact signal; for inhibition at 20 µM: read-out: Inhibitory effect (percent); for Assay Signal (percent) / Validation result of HTS active: effect of the compound in the JARID1B AlphaScreen demethylase assay: validation of HTS actives; for Assay Signal (percent): effect of compound in JARID1B AlphaScreen assay; for Validation result of HTS active: effect of the compound in the JARID1B AlphaScreen demethylase assay: total signal before subtraction of artifact signal;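 on Assay Signal (percent): compound tested at 20 µM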;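 on Assay − Artifact Signal (percent): compound tested at 20 µM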;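 on all read-outs here: FLAG-tagged JARID1B at 4 nM acting on a biotinylated H3K4me3 peptide, demethylation read by AlphaScreen luminescence, with hits checked against bio-H3K4me2 without enzyme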
T1 construct: The FLAG tagged full length JARID1B enzyme was expressed in Sf21 insect cells using FLAG-JARID1B baculoviruses; FLAG (N); made in house; host or cells: Sf21 insect cells (baculovirus)

[2] = high-throughput screen, compound 20 μM, standard demethylase conditions (10 μM α-KG, 50 μM Fe (II))
[3] = high-throughput screen, compound 20 μM, IDs marked *: additional hits under reaction condition with 1 mM α-KG
[4] = dose response at 15 μM (low) Fe (II), read-out: IC50 (μM) low Fe (II)
[5] = dose response at 50 μM (high) Fe (II), read-out: IC50 (μM) high Fe (II)

T1 sequence (Q9UGL1 whole entry): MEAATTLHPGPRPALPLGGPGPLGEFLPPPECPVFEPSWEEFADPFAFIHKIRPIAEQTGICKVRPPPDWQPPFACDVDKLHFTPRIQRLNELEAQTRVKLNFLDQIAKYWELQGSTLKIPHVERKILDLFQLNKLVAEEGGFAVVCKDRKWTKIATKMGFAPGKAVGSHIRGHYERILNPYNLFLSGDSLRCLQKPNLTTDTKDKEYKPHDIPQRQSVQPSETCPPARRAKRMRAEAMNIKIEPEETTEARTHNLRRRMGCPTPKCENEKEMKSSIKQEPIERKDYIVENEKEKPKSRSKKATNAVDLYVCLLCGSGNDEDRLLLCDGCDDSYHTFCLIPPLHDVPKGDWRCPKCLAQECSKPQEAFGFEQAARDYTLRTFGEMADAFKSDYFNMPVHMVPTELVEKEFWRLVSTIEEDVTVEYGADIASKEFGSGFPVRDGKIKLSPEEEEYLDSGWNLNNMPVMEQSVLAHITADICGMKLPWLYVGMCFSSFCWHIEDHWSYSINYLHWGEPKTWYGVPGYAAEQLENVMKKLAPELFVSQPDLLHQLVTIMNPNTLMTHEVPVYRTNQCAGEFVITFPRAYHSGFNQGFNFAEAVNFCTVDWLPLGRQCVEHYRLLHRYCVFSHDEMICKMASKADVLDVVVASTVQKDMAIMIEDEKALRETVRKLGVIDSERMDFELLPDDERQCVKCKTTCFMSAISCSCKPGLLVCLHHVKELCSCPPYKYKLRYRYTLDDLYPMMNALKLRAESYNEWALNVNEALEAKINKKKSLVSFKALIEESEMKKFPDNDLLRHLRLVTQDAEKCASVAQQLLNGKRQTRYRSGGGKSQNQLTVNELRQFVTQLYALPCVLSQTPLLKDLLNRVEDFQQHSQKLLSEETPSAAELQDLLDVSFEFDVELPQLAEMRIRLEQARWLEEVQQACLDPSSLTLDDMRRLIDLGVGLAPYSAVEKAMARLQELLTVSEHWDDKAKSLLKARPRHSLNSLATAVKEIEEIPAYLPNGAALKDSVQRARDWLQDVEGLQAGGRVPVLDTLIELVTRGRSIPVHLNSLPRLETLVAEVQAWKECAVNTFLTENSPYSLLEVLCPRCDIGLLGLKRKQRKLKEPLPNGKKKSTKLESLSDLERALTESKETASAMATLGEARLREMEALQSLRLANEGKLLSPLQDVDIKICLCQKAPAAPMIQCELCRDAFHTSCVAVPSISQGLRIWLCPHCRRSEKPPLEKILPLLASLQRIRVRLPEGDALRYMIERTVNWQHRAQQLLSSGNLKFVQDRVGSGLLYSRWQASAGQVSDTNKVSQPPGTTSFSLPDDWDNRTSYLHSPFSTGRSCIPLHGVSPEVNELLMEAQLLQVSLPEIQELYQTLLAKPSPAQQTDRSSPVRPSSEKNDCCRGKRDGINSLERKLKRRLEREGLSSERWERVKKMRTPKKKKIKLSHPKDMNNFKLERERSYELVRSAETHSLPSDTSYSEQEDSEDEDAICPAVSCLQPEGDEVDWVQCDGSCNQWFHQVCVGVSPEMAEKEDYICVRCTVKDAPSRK

| Artifact Signal (percent) [1] [%] | Assay − Artifact Signal (percent) (JARID1B) [%] | inhibition at 20 µM (JARID1B; [2]) [%] | Assay Signal (percent) (JARID1B) [%] | Molecule | further results |
| --- | --- | --- | --- | --- | --- |
| 40.11 | 22.61 | 44.6 | 62.72 | N#CC(=CC=Cc1ccco1)C(N)=S (single isomer, unassigned) [YU144893] |  |
| −6.95 | 104.16 | 90.8 | 97.21 | Cn1c(C(C#N)=Cc2ccncc2)nc2ccccc21 (single isomer, unassigned) [YU146842] |  |
| 16.98 | 14.43 | 56.9 | 31.41 | Cc1c(C(=O)O)cccc1-c1ccc(C=C[N+](=O)[O-])o1 (single isomer, unassigned) [YU147801] |  |
| 2.50 | 37.94 | 43.1 | 40.44 | Cc1ccc(C(C#N)=Cc2ccc(N3CCOCC3)o2)cc1 (single isomer, unassigned) [YU149607] |  |
|  |  | 33.8 |  | Cn1c(SCC=Cc2ccccc2)nnc1-c1cnccn1 (single isomer, unassigned) [YU151184] | Artifact signal: effect of the compound when it is incubated with bio-H3K4me2 peptide [1]: −5.59; Validation result of HTS active: effect of the compound in the JARID1B AlphaScreen demethylase assay (JARID1B): 1.02 |
| 2.40 | 9.56 | 42 | 11.96 | N#CC(=Cc1ccc(N2CCCCC2)o1)c1ccc([N+](=O)[O-])cc1 (single isomer, unassigned) [YU152765] |  |
| 91.35 | 8.98 | 101 | 100.32 | COc1cc(C=C[N+](=O)[O-])ccc1OCc1cccc(C(=O)O)c1 (single isomer, unassigned) [YU153545] |  |
| −5.27 | 99.03 | 90.8 | 93.75 | N#CC(=Cc1ccncc1)c1nc2cc(C(F)(F)F)ccc2s1 (single isomer, unassigned) [YU153803] |  |
|  |  |  |  | Cn1nnnc1SCC1=C(C(=O)O)N2C(=O)[C@H](NC(=O)C(O)c3ccccc3)C2SC1 (stereo in doubt) [YU034265, CEFAMANDOLE SODIUM, reference compound] | inhibition at 20 µM (JARID1B; [3]): 40.5% |
|  |  |  |  | O=C(OC[C@H]1O[C@@H](OC(=O)c2cc(O)c(O)c(OC(=O)c3cc(O)c(O)c(O)c3)c2)[C@H](OC(=O)c2cc(O)c(O)c(OC(=O)c3cc(O)c(O)c(O)c3)c2)[C@@H](OC(=O)c2cc(O)c(O)c(OC(=O)c3cc(O)c(O)c(O)c3)c2)[C@@H]1OC(=O)c1cc(O)c(O)c(OC(=O)c2cc(O)c(O)c(O)c2)c1)c1cc(O)c(O)c(OC(=O)c2cc(O)c(O)c(O)c2)c1 (stereo in doubt) [YU155507, TANNIC ACID, reference compound] | Inhibitory effect (percent) (JARID1B; [2]): 105.46% |
|  |  |  |  | O=C(O)/C=C/c1ccc(O)c(O)c1 [Caffeic acid, reference compound] | IC50 (JARID1B; [4]): 1.71 µM; IC50 (JARID1B; [5]): 2.88 µM |
|  |  |  |  | Cn1c(/C(C#N)=C/c2ccncc2)nc2ccccc21 [ChemBridge 6339039] | IC50 (JARID1B; [4]): 1.8 µM; IC50 (JARID1B; [5]): 1.31 µM |
|  |  |  |  | N#C/C(=C\c1ccncc1)c1nc2cc(C(F)(F)F)ccc2s1 [ChemBridge 7812182] | IC50 (JARID1B; [4]): 1.66 µM; IC50 (JARID1B; [5]): 1.15 µM |
|  |  |  |  | O=c1c2ccccc2[se]n1-c1ccccc1 [Ebselen, ebselen, reference compound] | pIC50 (JARID1B; Fe (II) concentration not stated, read-out: IC50 against JARID1B): ~5.22; IC50 (JARID1B; [4]): 7.63 µM; IC50 (JARID1B; [5]): 5.17 µM |
|  |  |  |  | O=c1ccc2cc(O)c(O)cc2o1 [Esculetin, esculetin, reference compound] | IC50 (JARID1B; [4]): 2.57 µM; IC50 (JARID1B; [5]): 4.6 µM |
|  |  |  |  | CC(C)(O)[C@@H]1[C@H]2OC(=O)[C@@H]1[C@]1(O)C[C@H]3O[C@]34C(=O)O[C@H]2[C@]14C [YU033619, PICROTIN, reference compound] | inhibition at 20 µM (JARID1B): 46.9%; Validation result of HTS active: effect of the compound in the JARID1B AlphaScreen demethylase assay (JARID1B): −12.66 |
|  |  | 63.1 |  | CC(=O)O[C@H]1C[C@@]2(C)[C@@H](C[C@@H](O)[C@H]3[C@@]4(C)CC[C@@H](O)[C@@H](C)[C@@H]4CC[C@@]32C)/C1=C(\CCC=C(C)C)C(=O)O [YU033837, FUSIDIC ACID, reference compound] | Validation result of HTS active: effect of the compound in the JARID1B AlphaScreen demethylase assay (JARID1B): 0.93 |

| Artifact Signal (percent) [1] [%] | Assay − Artifact Signal (percent) (JARID1B) [%] | inhibition at 20 µM (JARID1B; [2]) [%] | Assay Signal (percent) (JARID1B) [%] | Molecule | further results |
| --- | --- | --- | --- | --- | --- |
| 0.79 |  |  |  | Cc1ccccc1C(OCCN(C)C)c1ccccc1 (stereo not drawn) [YU033938, ORPHENADRINE CITRATE, reference compound] |  |
|  |  |  |  | c1ccc2c(c1)CCCC2C1=NCCN1 (stereo not drawn) [YU034020, TETRAHYDROZOLINE HYDROCHLORIDE, reference compound] | inhibition at 20 µM (JARID1B; [3]): 99.2%; Validation result of HTS active: effect of the compound in the JARID1B AlphaScreen demethylase assay (JARID1B): −5.13 |
|  |  |  |  | C[CH2][Hg][S]c1ccccc1C(=O)[O-] [YU034023, THIMEROSAL, reference compound] | Artifact signal: effect of the compound when it is incubated with bio-H3K4me2 peptide [1]: −5.81 |
|  |  |  |  | CC(=O)[O][Hg][c]1ccccc1 [YU034074, PHEN[…], ACETATE, reference compound] | Artifact signal: effect of the compound when it is incubated with bio-H3K4me2 peptide [1]: −10.79 |
|  |  | 41.4 |  | O=c1c2ccccc2[se]n1-c1ccccc1 [YU034226, EBSELEN, reference compound] | inhibition at 20 µM (JARID1B; [3]): 56.5% |
|  |  | 64.4 |  | Cc1cc(/C=C/c2ccc3cc(N(C)C)ccc3[n+]2C)c(C)n1-c1ccccc1 [YU034547, PYRVINIUM PAMOATE, reference compound] | Validation result of HTS active: effect of the compound in the JARID1B AlphaScreen demethylase assay (JARID1B): −3.96 |
| 4.88 |  |  |  | CC[C@H]1OC(=O)[C@H](C)[C@@H](OC2CC(C)(OC)C(O)C(C)O2)[C@H](C)[C@@H](S2(C)(=O)NC3C(N(C)C)CC(C)NC32)[C@](C)(O)C[C@@H](C)/C(=N\C)[C@H](C)[C@@H](O)[C@]1(C)O (stereo partly drawn) [YU035181] |  |
|  |  | 54.7 |  | Cc1cc(C)nc(N(C#N)C(=S)N(C)C)n1 [YU145655] |  |
|  |  | 49.6 |  | Cn1c(=O)n(C)c2cc(S(=O)(=O)NNc3ccccc3)ccc21 [YU152899] |  |
|  |  | 99.5 |  | O=C(O[C@@H]1Cc2c(O)cc(O)cc2O[C@@H]1c1ccc(O)c(O)c1)c1cc(O)c(O)c(O)c1 [YU155085, EPICATECHIN MONOGALLATE, reference compound] |  |
|  |  |  |  | O=C(O[C@@H]1Cc2c(O)cc(O)cc2O[C@@H]1c1cc(O)c(O)c(O)c1)c1cc(O)c(O)c(O)c1 [YU155090, EPIGALLOCATECHIN-3- MONOGALLATE, reference compound] | Inhibitory effect (percent) (JARID1B; [2]): 98.42% |
|  |  | 89 |  | O=c1c(O)c(-c2ccc(O)c(O)c2)oc2c(O[C@@H]3O[C@H](CO)[C@@H](O)[C@H](O)[C@H]3O)c(O)cc(O)c12 [YU155353, GOSSYPIN, reference compound] |  |
|  |  | 98.8 |  | O=c1c2cc(O)c(O)cc2oc2cc(O)c([C@@H]3O[C@H](CO)[C@@H](O)[C@H](O)[C@H]3O)c(O)c12 [YU155356, MANGIFERIN, reference compound] |  |
|  |  | 61.5 |  | Cc1noc2c1C(c1ccc(O)c(O)c1)C1=C(CCCC1=O)N2 (stereo not drawn) [YU185529] |  |
|  |  | 44.6 |  | O=C(Nc1ccc(N2Cc3ccccc3OC(c3ccccc3)C2)c(C(=O)O)c1)c1ccccc1F (stereo not drawn) [YU208215] |  |
|  |  |  |  | TYROTHRICIN [YU034048, reference compound] | Inhibitory effect (percent) (JARID1B; [2]): 68.66% |

| Molecule | Artifact Signal (percent) [1] [%] | Assay − Artifact Signal (percent) (JARID1B) [%] | inhibition at 20 µM (JARID1B; [2]) [%] | Assay Signal (percent) (JARID1B) [%] | further results |
| --- | --- | --- | --- | --- | --- |
| C=CCOc1c(Cl)cc(C=C[N+](=O)[O-])cc1OCC (single isomer, unassigned) [YU148636] | −0.47 | 11.11 | 34.7 | 10.64 |  |
| N#CC(=Cc1ccc(O)c(O)c1)C(N)=O (single isomer, unassigned) [YU154833, TYRPHOSTIN 46, reference compound] | 4.32 | 46.11 | 76.8 | 50.42 |  |
| N#CC(=Cc1ccc(O)c(O)c1)C(N)=S (single isomer, unassigned) [YU154834, TYRPHOSTIN 47, reference compound] | 18.48 | 21.75 | 46.5 | 40.23 |  |
| O=C1c2c(O)ccc(O)c2C(=O)c2c(NCCNCCO)ccc(NCCNCCO)c21 [YU034420, MITOXANTHRONE HYDROCHLORIDE, reference compound] |  | 10.55 | 101 | 99.87 |  |
| OC1CCCCC1N1CCC(c2ccccc2)CC1 (stereo not drawn) [YU034447, VESAMICOL HYDROCHLORIDE, reference compound] |  | 8.85 |  | 8.67 | inhibition at 20 µM (JARID1B): 40.5% |
| COc1cccc2c1C(=O)c1c(O)c3c(c(O)c1C2=O)C[C@@](O)(C(C)=O)C[C@@H]3O[C@H]1C[C@H](N)[C@H](O)[C@H](C)O1 [YU155188, DAUNORUBICIN, reference compound] |  |  | 74.7 |  |  |
| O=c1ccc2cc(O)c(O)cc2o1 [YU155534, ESCULETIN, reference compound] | 6.30 |  |  |  |  |
| Cl.Oc1cc2c(cc1O)[C@H]1c3ccccc3CN[C@@H]1CC2 [YU221065, Benzo[a]phenanthridine-10,11-diol, 5,6,6a,7,8,12b-hexahydro-, trans-, reference compound] |  | 55.73 | 49.1 | 59.95 |  |
